Test results taken from ChEMBL document CHEMBL1201862, “PubChem BioAssay data set” (2004).
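Following 48 hours of exposure in 96-well plates, responses at five concentrations were used to interpolate endpoints linearly. Here, GI50 denotes the concentration required for 50% inhibition of growth.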 Calls of active or inactive are those of the source. Cut-off read from the data, not from the text of the source: active = GI50 up to about 1.1 µM and inactive = higher.

Experiments:
Experiment in all cases: NCI-60 cell line screen, 48 h
786-0 = system: 786-0
A498 = system: A498
A549 = system: A549
ACHN = system: ACHN
CAKI-1 = system: CAKI-1
CCRF-CEM = system: CCRF-CEM
COLO 205 = system: COLO 205
DLD-1 = system: DLD-1
DMS-114 = system: DMS-114
DMS-273 = system: DMS-273
EKVX = system: EKVX
HCT-116 = system: HCT-116
HCT-15 = system: HCT-15
HL-60 = system: HL-60
HOP-18 = system: HOP-18
HOP-62 = system: HOP-62
HOP-92 = system: HOP-92
HT-29 = system: HT-29
IGROV-1 = system: IGROV-1
K562 = system: K562
KM-20L2 = system: KM-20L2
LXFL 529 = system: LXFL 529
M14 = system: M14
M19-MEL = system: M19-MEL
MOLT-4 = system: MOLT-4
Malme-3M = system: Malme-3M
NCI-H226 = system: NCI-H226
NCI-H23 = system: NCI-H23
NCI-H522 = system: NCI-H522
OVCAR-3 = system: OVCAR-3
OVCAR-4 = system: OVCAR-4
OVCAR-5 = system: OVCAR-5
OVCAR-8 = system: OVCAR-8
RPMI-8226 = system: RPMI-8226
SF-268 = system: SF-268
SF-295 = system: SF-295
SF-539 = system: SF-539
SK-MEL-28 = system: SK-MEL-28
SK-MEL-5 = system: SK-MEL-5
SK-OV-3 = system: SK-OV-3
SN12C = system: SN12C
SNB-19 = system: SNB-19
SNB-75 = system: SNB-75
SNB-78 = system: SNB-78
SR = system: SR
SW-620 = system: SW-620
TK-10 = system: TK-10
U-251 = system: U-251
UACC-257 = system: UACC-257
UACC-62 = system: UACC-62
UO-31 = system: UO-31
XF498 = system: XF498
BT-549 = system: BT-549
DU-145 = system: DU-145
HCC 2998 = system: HCC 2998
Hs-578T = system: Hs-578T
KM12 = system: KM12
LOX IMVI = system: LOX IMVI
MCF7 = system: MCF7
MDA-MB-231 = system: MDA-MB-231
MDA-MB-435 = system: MDA-MB-435
MDA-N = system: MDA-N
NCI-H460 = system: NCI-H460
NCI/ADR-RES = system: NCI/ADR-RES
PC-3 = system: PC-3
RXF 393 = system: RXF 393
SK-MEL-2 = system: SK-MEL-2
T47D = system: T47D

With `CC/C(CC(=O)CCC(=O)Nc1ccc(C)c(C)c1)=N\NC(=O)C(N)=O` the GI50 (786-0) was > 100 µM (inactive), the GI50 (A498) was > 100 µM (inactive) and the GI50 (A549) was > 100 µM (inactive). The GI50 (ACHN) was > 100 µM (inactive), the GI50 (CAKI-1) was > 100 µM (inactive) and the GI50 (CCRF-CEM) was > 100 µM (inactive). For the same molecule, the GI50 (COLO 205) was > 100 µM (inactive), the GI50 (DLD-1) was > 100 µM (inactive) and the GI50 (DMS-114) was > 100 µM (inactive). For the same molecule, the GI50 (DMS-273) was > 100 µM (inactive), the GI50 (EKVX) was > 100 µM (inactive) and the GI50 (HCT-116) was > 100 µM (inactive). The GI50 (HCT-15) was > 100 µM, the GI50 (HL-60) was > 100 µM (inactive) and the GI50 (HOP-18) was > 100 µM (inactive). The GI50 (HOP-62) was > 100 µM (inactive), the GI50 (HOP-92) was > 100 µM (inactive) and the GI50 (HT-29) was > 100 µM (inactive). For the same molecule, the GI50 (IGROV-1) was > 100 µM (inactive), the GI50 (K562) was > 100 µM (inactive) and the GI50 (KM-20L2) was > 100 µM (inactive). The GI50 (LXFL 529) was > 100 µM (inactive), the GI50 (M14) was > 100 µM (inactive) and the GI50 (M19-MEL) was > 100 µM (inactive). The GI50 (MOLT-4) was > 100 µM (inactive), the GI50 (Malme-3M) was > 100 µM (inactive) and the GI50 (NCI-H226) was > 100 µM (inactive). The GI50 (NCI-H23) was > 100 µM (inactive), the GI50 (NCI-H522) was > 100 µM (inactive) and the GI50 (OVCAR-3) was > 100 µM (inactive). For the same molecule, the GI50 (OVCAR-4) was > 100 µM (inactive), the GI50 (OVCAR-5) was > 100 µM (inactive) and the GI50 (OVCAR-8) was > 100 µM (inactive). For the same molecule, the GI50 (RPMI-8226) was > 100 µM (inactive), the GI50 (SF-268) was > 100 µM (inactive) and the GI50 (SF-295) was > 100 µM (inactive). The GI50 (SF-539) was > 100 µM (inactive), the GI50 (SK-MEL-28) was > 100 µM (inactive) and the GI50 (SK-MEL-5) was > 100 µM (inactive). For the same molecule, the GI50 (SK-OV-3) was > 100 µM (inactive), the GI50 (SN12C) was > 100 µM (inactive) and the GI50 (SNB-19) was > 100 µM (inactive). The GI50 (SNB-75) was > 100 µM (inactive), the GI50 (SNB-78) was > 100 µM (inactive) and the GI50 (SR) was > 100 µM (inactive). The GI50 (SW-620) was > 100 µM (inactive), the GI50 (TK-10) was > 100 µM (inactive) and the GI50 (U-251) was > 100 µM (inactive). For the same molecule, the GI50 (UACC-257) was > 100 µM (inactive), the GI50 (UACC-62) was > 100 µM (inactive) and the GI50 (UO-31) was > 100 µM (inactive). The GI50 (XF498) was > 100 µM (inactive).

In the case of `Cc1ccc(C(=O)Nc2ccc(S(=O)(=O)O)c3cc(S(=O)(=O)O)cc(S(=O)(=O)O)c23)cc1NC(=O)c1cccc(NC(=O)Nc2cccc(C(=O)Nc3cc(C(=O)Nc4ccc(S(=O)(=O)O)c5cc(S(=O)(=O)O)cc(S(=O)(=O)O)c45)ccc3C)c2)c1` [SURAMIN], the GI50 (786-0) is reported as 74.6 µM (inactive), the GI50 (A498) is reported as > 84.3 µM (inactive) and the GI50 (A549) is reported as 56.4 µM (inactive). The GI50 (ACHN) was 97.9 µM (inactive), the GI50 (BT-549) was 95.7 µM (inactive) and the GI50 (CAKI-1) was 73.5 µM (inactive). The GI50 (CCRF-CEM) was > 100 µM (inactive), the GI50 (COLO 205) was > 72.9 µM (inactive) and the GI50 (DLD-1) was 97.5 µM (inactive). The GI50 (DMS-114) was 28.6 µM (inactive), the GI50 (DMS-273) was 39.8 µM (inactive) and the GI50 (DU-145) was > 100 µM (inactive). The GI50 (EKVX) was > 69.5 µM (inactive), the GI50 (HCC 2998) was > 100 µM (inactive) and the GI50 (HCT-116) was 76 µM (inactive). The GI50 (HCT-15) was 90.8 µM, the GI50 (HL-60) was 49.4 µM (inactive) and the GI50 (HOP-18) was > 52.4 µM (inactive). The GI50 (HOP-62) was > 100 µM (inactive), the GI50 (HOP-92) was 54.5 µM (inactive) and the GI50 (HT-29) was 62.4 µM (inactive). The GI50 (Hs-578T) was > 100 µM (inactive), the GI50 (IGROV-1) was 69.3 µM (inactive) and the GI50 (K562) was > 93.5 µM (inactive). For the same molecule, the GI50 (KM-20L2) was 34.6 µM (inactive), the GI50 (KM12) was > 67.5 µM (inactive) and the GI50 (LOX IMVI) was 51.1 µM (inactive). The GI50 (LXFL 529) was > 100 µM (inactive), the GI50 (M14) was 74.8 µM (inactive) and the GI50 (M19-MEL) was 59.7 µM (inactive). The GI50 (MCF7) was > 100 µM (inactive), the GI50 (MDA-MB-231) was > 100 µM (inactive) and the GI50 (MDA-MB-435) was > 100 µM (inactive). The GI50 (MDA-N) was > 100 µM (inactive), the GI50 (MOLT-4) was > 80 µM (inactive) and the GI50 (Malme-3M) was > 83 µM (inactive). For the same molecule, the GI50 (NCI-H226) was > 63.8 µM (inactive), the GI50 (NCI-H23) was 68.9 µM (inactive) and the GI50 (NCI-H460) was > 80.5 µM (inactive). For the same molecule, the GI50 (NCI-H522) was 88.5 µM (inactive), the GI50 (NCI/ADR-RES) was > 100 µM (inactive) and the GI50 (OVCAR-3) was > 93.3 µM (inactive). The GI50 (OVCAR-4) was 79.3 µM (inactive), the GI50 (OVCAR-5) was > 50.6 µM (inactive) and the GI50 (OVCAR-8) was 74.8 µM (inactive). The GI50 (PC-3) was > 100 µM (inactive), the GI50 (RPMI-8226) was > 100 µM (inactive) and the GI50 (RXF 393) was > 92.7 µM (inactive). The GI50 (SF-268) was 66.2 µM (inactive), the GI50 (SF-295) was 69 µM (inactive) and the GI50 (SF-539) was > 100 µM (inactive). The GI50 (SK-MEL-28) was > 91.6 µM (inactive), the GI50 (SK-MEL-2) was 58.9 µM (inactive) and the GI50 (SK-MEL-5) was > 84.7 µM (inactive). The GI50 (SK-OV-3) was > 88.1 µM (inactive), the GI50 (SN12C) was > 80.9 µM (inactive) and the GI50 (SNB-19) was > 100 µM (inactive). For the same molecule, the GI50 (SNB-75) was 48.2 µM (inactive), the GI50 (SNB-78) was > 71.3 µM (inactive) and the GI50 (SR) was 69.3 µM (inactive). The GI50 (SW-620) was 89.3 µM (inactive), the GI50 (T47D) was > 100 µM (inactive) and the GI50 (TK-10) was 32 µM (inactive). The GI50 (U-251) was 77.3 µM (inactive), the GI50 (UACC-257) was > 100 µM (inactive) and the GI50 (UACC-62) was 54.6 µM (inactive). The GI50 (UO-31) was 39.4 µM (inactive) and the GI50 (XF498) was 27 µM (inactive).
